Measurements taken from ChEMBL document CHEMBL3885881, “DrugMatrix”.

Species on record: Rattus norvegicus
Assay: DrugMatrix - Regimen: Daily Repeat
Type: toxicity, organism-based, Sprague-Dawley
Set-up: regimen Daily Repeat, gender Male, age 6-8 weeks
Settings: in vivo, po, route oral GAVAGE, vehicle 100 % WATER; for ABSOLUTE BASOPHIL / ABSOLUTE EOSINOPHIL / ABSOLUTE LYMPHOCYTE / ABSOLUTE MONOCYTE / ABSOLUTE SEGMENTED NEUTROPHIL / BASOPHIL / EOSINOPHIL / ERYTHROCYTE COUNT / HEMATOCRIT / HEMOGLOBIN / LEUKOCYTE COUNT / LYMPHOCYTE / MEAN CORPUSCULAR HEMOGLOBIN / MEAN CORPUSCULAR HEMOGLOBIN CONCENTRATION / MEAN CORPUSCULAR VOLUME / MONOCYTE / NEUTROPHIL / NUCLEATED RED BLOOD CELLS / PLATELET COUNT: tissue Blood; for ALANINE AMINOTRANSFERASE / ALBUMIN / ALKALINE PHOSPHATASE / ASPARTATE AMINOTRANSFERASE / BLOOD UREA NITROGEN / CARBON DIOXIDE / CHLORIDE / CHOLESTEROL / CREATINE PHOSPHOKINASE / CREATININE / GLUCOSE / LACTATE DEHYDROGENASE / LIPASE / PHOSPHORUS / POTASSIUM / SODIUM / TOTAL BILIRUBIN / TOTAL PROTEIN / URIC ACID: tissue Plasma
[1] = 27 mg/kg, 120 h, dose level Low, time 5 day
[2] = 54 mg/kg, 72 h, dose level High, time 3 day
[3] = 54 mg/kg, 120 h, dose level High, time 5 day

SMILES: CNNCc1ccc(C(=O)NC(C)C)cc1 [PROCARBAZINE]
- ABSOLUTE BASOPHIL [1]: 0 CELLS/uL
- ABSOLUTE EOSINOPHIL [1]: 16.67 CELLS/uL
- ABSOLUTE LYMPHOCYTE [1]: 6271.33 CELLS/uL
- ABSOLUTE MONOCYTE [1]: 33.33 CELLS/uL
- ABSOLUTE SEGMENTED NEUTROPHIL [1]: 112 CELLS/uL
- BASOPHIL [1]: 0%
- EOSINOPHIL [1]: 0.33%
- ERYTHROCYTE COUNT [1]: 5.26 x10E6/uL
- HEMATOCRIT [1]: 33.2%
- HEMOGLOBIN [1]: 13.37 G/DL
- LEUKOCYTE COUNT [1]: 6.43 x10E3/uL
- LYMPHOCYTE [1]: 97.33%
- MEAN CORPUSCULAR HEMOGLOBIN [1]: 25.4 pg
- MEAN CORPUSCULAR HEMOGLOBIN CONCENTRATION [1]: 40.27 G/DL
- MEAN CORPUSCULAR VOLUME [1]: 63.07 fL
- MONOCYTE [1]: 0.67%
- NEUTROPHIL [1]: 1.67%
- NUCLEATED RED BLOOD CELLS [1]: 0 /100WBC
- PLATELET COUNT [1]: 1312.67 x10E3/uL
- ALANINE AMINOTRANSFERASE [1]: 59.67 u/L
- ALBUMIN [1]: 4.33 G/DL
- ALKALINE PHOSPHATASE [1]: 347 u/L
- ASPARTATE AMINOTRANSFERASE [1]: 78.67 u/L
- BLOOD UREA NITROGEN [1]: 13.67 mg/dL
- CARBON DIOXIDE [1]: 33.67 mmol/L
- CHLORIDE [1]: 98 MEQ/L
- CHOLESTEROL [1]: 69 mg/dL
- CREATINE PHOSPHOKINASE [1]: 304.67 u/L
- CREATININE [1]: 0.18 mg/dL
- GLUCOSE [1]: 140.67 mg/dL
- LACTATE DEHYDROGENASE [1]: 152 u/L
- LIPASE [1]: 15.33 u/L
- PHOSPHORUS [1]: 9.77 mg/dL
- POTASSIUM [1]: 5.23 MEQ/L
- SODIUM [1]: 144.95 MEQ/L
- TOTAL BILIRUBIN [1]: 0.13 mg/dL
- TOTAL PROTEIN [1]: 6.07 G/DL
- URIC ACID [1]: 0.77 mg/dL
- ABSOLUTE BASOPHIL [2]: 0 CELLS/uL
- ABSOLUTE EOSINOPHIL [2]: 27.33 CELLS/uL
- ABSOLUTE LYMPHOCYTE [2]: 4383.67 CELLS/uL
- ABSOLUTE MONOCYTE [2]: 36 CELLS/uL
- ABSOLUTE SEGMENTED NEUTROPHIL [2]: 119.67 CELLS/uL
- BASOPHIL [2]: 0%
- EOSINOPHIL [2]: 0.67%
- ERYTHROCYTE COUNT [2]: 5.22 x10E6/uL
- HEMATOCRIT [2]: 33.2%
- HEMOGLOBIN [2]: 13 G/DL
- LEUKOCYTE COUNT [2]: 4.57 x10E3/uL
- LYMPHOCYTE [2]: 96%
- MEAN CORPUSCULAR HEMOGLOBIN [2]: 24.93 pg
- MEAN CORPUSCULAR HEMOGLOBIN CONCENTRATION [2]: 39.17 G/DL
- MEAN CORPUSCULAR VOLUME [2]: 63.7 fL
- MONOCYTE [2]: 0.67%
- NEUTROPHIL [2]: 2.67%
- NUCLEATED RED BLOOD CELLS [2]: 0 /100WBC
- PLATELET COUNT [2]: 1130.67 x10E3/uL
- ALANINE AMINOTRANSFERASE [2]: 49.67 u/L
- ALBUMIN [2]: 4.13 G/DL
- ALKALINE PHOSPHATASE [2]: 355.67 u/L
- ASPARTATE AMINOTRANSFERASE [2]: 81.67 u/L
- BLOOD UREA NITROGEN [2]: 13 mg/dL
- CARBON DIOXIDE [2]: 33.67 mmol/L
- CHLORIDE [2]: 100 MEQ/L
- CHOLESTEROL [2]: 90 mg/dL
- CREATINE PHOSPHOKINASE [2]: 291.67 u/L
- CREATININE [2]: 0.1 mg/dL
- GLUCOSE [2]: 146.67 mg/dL
- LACTATE DEHYDROGENASE [2]: 99 u/L
- LIPASE [2]: 9 u/L
- PHOSPHORUS [2]: 9.63 mg/dL
- POTASSIUM [2]: 5.66 MEQ/L
- SODIUM [2]: 145.5 MEQ/L
- TOTAL BILIRUBIN [2]: 0.1 mg/dL
- TOTAL PROTEIN [2]: 6 G/DL
- URIC ACID [2]: 0.43 mg/dL
- ABSOLUTE BASOPHIL [3]: 0 CELLS/uL
- ABSOLUTE EOSINOPHIL [3]: 0 CELLS/uL
- ABSOLUTE LYMPHOCYTE [3]: 3873.67 CELLS/uL
- ABSOLUTE MONOCYTE [3]: 49.33 CELLS/uL
- ABSOLUTE SEGMENTED NEUTROPHIL [3]: 210.33 CELLS/uL
- BASOPHIL [3]: 0%
- EOSINOPHIL [3]: 0%
- ERYTHROCYTE COUNT [3]: 5.43 x10E6/uL
- HEMATOCRIT [3]: 33.9%
- HEMOGLOBIN [3]: 13.27 G/DL
- LEUKOCYTE COUNT [3]: 4.13 x10E3/uL
- LYMPHOCYTE [3]: 93.33%
- MEAN CORPUSCULAR HEMOGLOBIN [3]: 24.43 pg
- MEAN CORPUSCULAR HEMOGLOBIN CONCENTRATION [3]: 39.13 G/DL
- MEAN CORPUSCULAR VOLUME [3]: 62.37 fL
- MONOCYTE [3]: 1%
- NEUTROPHIL [3]: 5.67%
- NUCLEATED RED BLOOD CELLS [3]: 0 /100WBC
- PLATELET COUNT [3]: 1552.67 x10E3/uL
- ALANINE AMINOTRANSFERASE [3]: 57.33 u/L
- ALBUMIN [3]: 4.33 G/DL
- ALKALINE PHOSPHATASE [3]: 297.33 u/L
- ASPARTATE AMINOTRANSFERASE [3]: 75.67 u/L
- BLOOD UREA NITROGEN [3]: 15.33 mg/dL
- CARBON DIOXIDE [3]: 34 mmol/L
- CHLORIDE [3]: 97.67 MEQ/L
- CHOLESTEROL [3]: 81 mg/dL
- CREATINE PHOSPHOKINASE [3]: 273.67 u/L
- CREATININE [3]: 0.13 mg/dL
- GLUCOSE [3]: 134.67 mg/dL
- LACTATE DEHYDROGENASE [3]: 135.33 u/L
- LIPASE [3]: 10 u/L
- PHOSPHORUS [3]: 9.93 mg/dL
- POTASSIUM [3]: 6 MEQ/L
- SODIUM [3]: 143.97 MEQ/L
- TOTAL BILIRUBIN [3]: 0.17 mg/dL
- TOTAL PROTEIN [3]: 6.13 G/DL
- URIC ACID [3]: 0.97 mg/dL
